Experimental data from PubChem BioAssay AID288 (DTP/NCI, 2004).
Several values for one entry are separate records, joined by “and”; a condition that tells them apart may be missing. Equal entries are not always repeated. Results filed as inconclusive are left out.

Test system: BDF1 mice, M5076 sarcoma s.c., survival/tumor T/C
Test: NCI In Vivo Anticancer Drug Screen. Data for tumor model Sarcoma M5076 (subcutaneous) in B6D2F1 (BDF1) mice
Description: The antitumor activity of compounds was measured in mice bearing transplantable tumors. Survival or tumor size were measured and the results are expressed as the measurement made in the treated group (T) divided by the measurement made in the vehicle treated control group (C). The tumor model used in this assay is Sarcoma M5076 (subcutaneous) in B6D2F1 (BDF1) mice

[1] = endpoint: mean tumor weight, dose: 12.5 mg/kg/injection, schedule: Q02DX011 (ip), vehicle: saline, higher = larger tumour
[2] = endpoint: mean tumor weight, dose: 25.0 mg/kg/injection, schedule: Q02DX011 (ip), vehicle: saline, higher = larger tumour
[3] = endpoint: mean tumor weight, dose: 50.0 mg/kg/injection, schedule: Q02DX011 (ip), vehicle: saline, higher = larger tumour
[4] = endpoint: median survival time, dose: 50.0 mg/kg/injection, schedule: Q01DX009 (ip), vehicle: saline with Tween-80, higher = longer survival
[5] = endpoint: median survival time, dose: 100.0 mg/kg/injection, schedule: Q01DX009 (ip), vehicle: saline with Tween-80, higher = longer survival
[6] = endpoint: median survival time, dose: 200.0 mg/kg/injection, schedule: Q01DX009 (ip), vehicle: saline with Tween-80, higher = longer survival
[7] = endpoint: median tumor weight (est.), dose: 50.0 mg/kg/injection, schedule: Q01DX009 (ip), vehicle: saline with Tween-80, higher = larger tumour
[8] = endpoint: median tumor weight (est.), dose: 100.0 mg/kg/injection, schedule: Q01DX009 (ip), vehicle: saline with Tween-80, higher = larger tumour
[9] = endpoint: median tumor weight (est.), dose: 200.0 mg/kg/injection, schedule: Q01DX009 (ip), vehicle: saline with Tween-80, higher = larger tumour

Structure (SMILES): O=C1c2ccccc2C(=O)c2c(NCCNCCO)ccc(O)c21
- T/C (endpoint: median survival time, dose: 12.5 mg/kg/injection, schedule: Q04DX003 (ip), vehicle: saline with Tween-80, higher = longer survival): 90 % of control
- T/C (endpoint: median survival time, dose: 25.0 mg/kg/injection, schedule: Q04DX003 (ip), vehicle: saline with Tween-80, higher = longer survival): 116 % of control
- T/C (endpoint: median survival time, dose: 50.0 mg/kg/injection, schedule: Q04DX003 (ip), vehicle: saline with Tween-80, higher = longer survival): 103 % of control
- T/C (endpoint: median survival time, dose: 100.0 mg/kg/injection, schedule: Q04DX003 (ip), vehicle: saline with Tween-80, higher = longer survival): 104 % of control and 107 % of control
- T/C (endpoint: median survival time, dose: 150.0 mg/kg/injection, schedule: Q04DX003 (ip), vehicle: saline with Tween-80, higher = longer survival): 122 % of control

Structure (SMILES): O=c1[nH]c(=O)n(C2CC(O)C(CO)O2)cc1C(F)(F)F (configuration not stated)
- T/C (endpoint: mean tumor weight, dose: 37.5 mg/kg/injection, schedule: Q02DX011 (ip), vehicle: saline, higher = larger tumour): 87 % of control
- T/C (endpoint: mean tumor weight, dose: 75.0 mg/kg/injection, schedule: Q02DX011 (ip), vehicle: saline, higher = larger tumour): 24 % of control
- T/C (endpoint: mean tumor weight, dose: 150.0 mg/kg/injection, schedule: Q02DX011 (ip), vehicle: saline, higher = larger tumour): 6 % of control
- T/C (endpoint: median tumor weight (est.), dose: 37.5 mg/kg/injection, schedule: Q02DX011 (ip), vehicle: saline, higher = larger tumour): 70 % of control and 90 % of control
- T/C (endpoint: median tumor weight (est.), dose: 150.0 mg/kg/injection, schedule: Q02DX011 (ip), vehicle: saline, higher = larger tumour): 4 % of control

Structure (SMILES): C[C@]12C=CC(=O)C=C1CC[C@@H]1[C@@H]2C(=O)C[C@@]2(C)[C@H]1CC[C@]2(O)C(=O)CO
- T/C [1]: 82 % of control
- T/C [2]: 52 % of control
- T/C [3]: 59 % of control

Structure (SMILES): C[CH2][Ge]1([CH2]C)[CH2]CC2(CCN(CCCN(C)C)C2)C[CH2]1
- T/C [1]: 110 % of control
- T/C [2]: 79 % of control and 91 % of control
- T/C [3]: 107 % of control and 82 % of control
- T/C (endpoint: median tumor weight (est.), dose: 12.5 mg/kg/injection, schedule: Q02DX011 (ip), vehicle: saline, higher = larger tumour): 94 % of control
- T/C (endpoint: median tumor weight (est.), dose: 25.0 mg/kg/injection, schedule: Q02DX011 (ip), vehicle: saline, higher = larger tumour): 74 % of control
- T/C (endpoint: median tumor weight (est.), dose: 50.0 mg/kg/injection, schedule: Q02DX011 (ip), vehicle: saline, higher = larger tumour): 74 % of control

Structure (SMILES): CCOC(=O)c1ccc(N2C(=O)OC(C)(C)C2=O)cc1
- T/C [4]: 108 % of control
- T/C [5]: 115 % of control
- T/C [6]: 95 % of control
- T/C [7]: 99 % of control
- T/C [8]: 97 % of control
- T/C [9]: 80 % of control

Structure (SMILES): O=C1Nc2cnc(Cl)nc2Nc2ccccc21
- T/C [4]: 97 % of control
- T/C [5]: 94 % of control
- T/C [6]: 95 % of control
- T/C [7]: 90 % of control
- T/C [8]: 75 % of control
- T/C [9]: 86 % of control

Structure (SMILES): C1CN(P2(N3CC3)=NP(N3CC3)(N3CC3)=NP(N3CC3)(N3CC3)=N2)CCO1 (configuration not stated)
- T/C (endpoint: median survival time, dose: 6.25 mg/kg/injection, schedule: Q02DX011 (ip), vehicle: saline, higher = longer survival): 99 % of control
- T/C (endpoint: median survival time, dose: 12.5 mg/kg/injection, schedule: Q02DX011 (ip), vehicle: saline, higher = longer survival): 105 % of control
- T/C (endpoint: median survival time, dose: 25.0 mg/kg/injection, schedule: Q02DX011 (ip), vehicle: saline, higher = longer survival): 122 % of control
- T/C (endpoint: median survival time, dose: 50.0 mg/kg/injection, schedule: Q02DX011 (ip), vehicle: saline, higher = longer survival): 89 % of control

Structure (SMILES): Cc1ccc(SC(F)(F)C(F)C(F)(F)F)cc1 (configuration not stated)
- T/C [4]: 98 % of control
- T/C [5]: 112 % of control
- T/C [6]: 100 % of control

Structure (SMILES): CC(=O)Nc1ccc(OC(=O)Nc2ccc(C)c(NC(=O)Oc3ccc(NC(C)=O)cc3)c2)cc1
- T/C [4]: 113 % of control
- T/C [5]: 95 % of control
- T/C [7]: 47 % of control
- T/C [8]: 187 % of control
